{"source": "patent US9546200B2", "about": "“Peptide for protection of allergic respiratory disorders” (Board of Supervisors of Louisiana State University and …, priority 2011, dated 2017)", "tested_on": "foals", "set-up": "species or system horse", "settings": "in vivo", "protocol": "Two days before the injection of the peptide-1, a foal along with the mare was brought from the pasture to a bedded stall of the LSU School of Veterinary Medicine. They were fed hay and concentrated horse chow (Horse Chow #200^R, Purina Mills, St. Louis, Mo.); water was provided ad libitum. A physical examination was conducted on the day of injection. The foal's body temperature, heart rate, respiratory rate, body weight, body score, sex, breed, age and general physical conditions were recorded. After the physical examination, 5 ml of blood was drawn from jugular vein to determine pre-immune antibody titer (control value) and CBC.\nSince the peptide-1 has not been tried in any animals, the first foal was used to test the injection method and dosage. A low dose of 0.1 mg/kg body weight of conjugated peptide-1 with KLH was used, but without an adjuvant to minimize any adverse reactions due to either a high dose of peptide-1 or adjuvant. This protocol allowed a determination of any reaction due to the conjugated peptide-1 alone. A subcutaneous route of administration was chosen to produce a consistent “slow and steady” absorption. The first injection was given on the left side of the neck after cleaning with alcohol. […] After the injection, 5 ml blood was collected weekly. A booster injection with the same dose and route was given on the right side of the neck on the 15th day following the initial injection. Weekly blood collections continued for 42 days. […] For the remaining foals, a new protocol was used in that an adjuvant was added to the injection and the booster injection was given on the 28th day after the initial injection.\nImmediately after injection (either the first injection or the booster), a small swelling (size 1″×0.5″) at the site of injection was observed. The foal was observed continuously for the first hour and later every hour for eight hours. The foal evinced pain upon touch at the injection site, but it was eating, nursing, and drinking within 15 minutes after injection. […] No sweating, fever, cough, seizure or difficulty in breathing was observed.\nThe foal remained under close observation for another two days, when the swelling began to subside. On the third day, foal and mare were allowed to go to the pasture. A similar swelling occurred at the booster injection time also. Therefore, in the animal protocol, foals would be kept in the bedded stall with the mare for a week after injection to observe the foals closely. In addition, the protocol demanded that if the swollen area is more than 2.5″ in diameter and more than 0.5″ in thickness, hot water packs are to be applied to relieve pain and swelling. Veterinary medical care is to be consulted if the condition worsens. After one week in the stall, the Foal #2 was let out to pasture and continued to do well for the remainder of the experimental period of 57 days.\nThe basic protocol is as described for Foal #2. However, before injecting the peptide, extra care was taken in cleaning the injection site by scrubbing the site with Septisol antiseptic foam (Septisol^R, Steris Corp., Ohio) and alcohol. […] There was a small swelling in this foal which lasted only for 24 hours, probably due to the adjuvant. The adjuvant has an oily consistency, which would facilitate slow absorption of the injected solution.", "note": "Residues, ends and D or L forms follow the SMILES beside them."}
{"smiles": "CC[C@H](C)[C@H](NC(=O)[C@H](CCCCN)NC(=O)[C@H](CC(=O)O)NC(=O)[C@H](CCSC)NC(=O)[C@H](CC(C)C)NC(=O)[C@H](CCCCN)NC(=O)[C@H](CC(C)C)NC(=O)[C@@H](NC(=O)[C@H](CO)NC(=O)[C@H](CC(=O)O)NC(=O)[C@H](CCCCN)NC(=O)[C@@H](NC(=O)[C@H](CC(N)=O)NC(=O)[C@@H](N)CCCCN)[C@@H](C)O)[C@@H](C)CC)C(=O)N[C@@H](C)C(=O)N[C@@H](CCCCN)C(=O)N[C@@H](CO)C(=O)N1CCC[C@H]1C(=O)N[C@@H](CC(C)C)C(=O)N[C@@H](CS)C(=O)N[C@@H](C)C(=O)O", "note": "[Peptide-1] (H-KNTKDSILKLMDKIAKSPLCA-OH)", "values": [{"measurement": "area of swelling at the injection site", "value": "2.5″×2″"}, {"measurement": "size of swelling at the site of injection", "value": "1″×0.5″"}, {"measurement": "thickness of swelling at the injection site", "value": "0.5 ″"}, {"measurement": "duration of swelling", "setting": "sc, 0.1 mg/kg", "value": 24, "unit": "h"}, {"measurement": "other adverse reaction", "setting": "sc, 0.1 mg/kg", "value": "no other adverse reaction"}]}
